The source of these data is patent publication US10596172B2 (Celgene CAR LLC, priority 2008, dated 2020).

The target of this assay is JAK3 (Homo sapiens (Human), UniProt P52333). Description: Mass spectrometry for Janus-3 kinase (JAK3). It is filed as binding. As to conditions: 3 hrs at 10x excess, tryptic digest. On the procedure:
JAK3 kinase (33 pmols; Invitrogen) was incubated with (I-7) (327 pmols) for 3 hrs at 10× excess prior to tryptic digestion. Iodoacetamide was used as the alkylating agent after compound incubation. For tryptic digests a 5 ul aliquot (5.5 pmols) was diluted with 15 ul of 0.1% TFA prior to micro C18 Zip Tipping directly onto the MALDI target using alpha cyano-4-hydroxy cinnamic acid as the matrix (5 mg/ml in 0.1% TFA:Acetonitrile 50:50).
As depicted in FIG. 11, the expected peptide ([…]) to be modified was immediately evident as the largest peak at MH+ of 1725.88. This is the mass to be expected when compound I-7, with an adduct mass of 345.16, is added to the peptide mass of 1380.70. […] There was also evidence for a number of other modified peptides, however, their signals were low.
To further verify the presence of the modified peptides with compound I-7, the peptides at MH+ of 1725.88 and 1118.55 were subjected to PSD (MS/MS) analysis. A correlational analysis with the homo sapien database identified the correct peptides as being modified by I-7.
For tryptic digests the instrument was set in Reflectron mode with a pulsed extraction setting of 2200. Calibration was done using the Laser Biolabs Pep Mix standard ([…], 1296.69, 1672.92, 2093.09, 2465.20). […]

Chain of JAK3 (P52333 whole entry): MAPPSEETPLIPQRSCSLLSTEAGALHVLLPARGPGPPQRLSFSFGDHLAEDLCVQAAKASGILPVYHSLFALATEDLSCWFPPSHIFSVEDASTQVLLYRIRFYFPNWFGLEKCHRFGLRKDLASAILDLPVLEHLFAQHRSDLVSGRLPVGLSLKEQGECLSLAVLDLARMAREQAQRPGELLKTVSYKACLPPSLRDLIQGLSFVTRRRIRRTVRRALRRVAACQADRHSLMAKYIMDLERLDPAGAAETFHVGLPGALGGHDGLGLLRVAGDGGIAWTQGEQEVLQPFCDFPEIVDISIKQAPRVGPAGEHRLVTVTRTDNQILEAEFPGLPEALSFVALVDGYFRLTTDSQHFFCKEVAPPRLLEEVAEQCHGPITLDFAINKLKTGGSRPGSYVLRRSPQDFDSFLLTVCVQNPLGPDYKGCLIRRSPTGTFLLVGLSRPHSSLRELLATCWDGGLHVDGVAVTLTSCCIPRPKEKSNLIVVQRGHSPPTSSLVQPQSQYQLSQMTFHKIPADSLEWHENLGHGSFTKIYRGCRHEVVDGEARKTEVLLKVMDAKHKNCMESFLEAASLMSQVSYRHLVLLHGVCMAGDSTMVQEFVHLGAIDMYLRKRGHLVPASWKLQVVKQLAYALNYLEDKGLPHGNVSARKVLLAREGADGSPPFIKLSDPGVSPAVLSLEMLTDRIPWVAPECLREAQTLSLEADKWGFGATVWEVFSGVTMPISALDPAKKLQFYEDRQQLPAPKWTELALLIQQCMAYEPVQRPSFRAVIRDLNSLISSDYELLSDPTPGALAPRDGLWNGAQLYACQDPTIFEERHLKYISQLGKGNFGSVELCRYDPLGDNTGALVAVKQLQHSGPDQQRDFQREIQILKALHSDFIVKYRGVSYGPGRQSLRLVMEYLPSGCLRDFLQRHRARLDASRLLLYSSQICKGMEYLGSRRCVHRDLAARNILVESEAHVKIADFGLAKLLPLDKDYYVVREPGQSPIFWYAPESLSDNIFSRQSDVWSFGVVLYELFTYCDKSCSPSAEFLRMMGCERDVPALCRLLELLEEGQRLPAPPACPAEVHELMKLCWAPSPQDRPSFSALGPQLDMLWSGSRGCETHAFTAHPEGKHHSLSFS

In the case of `C=CC(=O)Nc1cccc(Nc2nc(Nc3ccccc3)ncc2C)c1` [Compound I-7, N-(3-(5-methyl-2-(phenylamino)pyrimidin-4-ylamino)phenyl)acrylamide], the “covalent modification of JAK3 peptide LVMEYLPSGCLR (Cys909) by mass spectrometry” value is on record as “not entirely complete”.
